According to patent US11078216B2, “Bisaryl amides as NRF2 activators” (GLAXOSMITHKLINE INTELLECTUAL PROPERTY DEVELOPMENT LIMITED, priority 2016, dated 2021):

System: NRF2 (NQO1 activity as marker for NRF2 activation), BEAS-2B cells
Test: BEAS-2B NQO1 MTT Assay
Assay type: cell-based
Details: Homo sapiens, EC50 of NQO1 specific activity induction, 48 hours incubation, read-out: EC50
Excerpt: NAD(P)H:quinone oxidoreductase 1 (NQO1), also called DT diaphorase, is a homodimeric FAD-containing enzyme that catalyzes obligatory NAD(P)H-dependent two-electron reductions of quinones and protects cells against the toxic and neoplastic effects of free radicals and reactive oxygen species arising from one-electron reductions. The transcription of NQO1 is finely regulated by NRF2, and thus NQO1 activity is a good marker for NRF2 activation. On day one, frozen BEAS-2B cells (ATCC) are thawed in a water bath, counted, and re-suspended at a concentration of 250,000 cells/mL. Fifty microliters of cells are plated in 384 well black clear-bottomed plates. Plates are incubated at 37° C., 5% CO2 overnight. On day two, plates are centrifuged and 50 nL of compound or controls are added to the cells. Plates are then incubated at 37° C., 5% CO2 for 48 hours. On day four, medium is aspirated from the plate and crude cell lysates are made by adding 13 uL of 1× Cell Signaling Technologies lysis buffer with 1 Complete, Mini, EDTA-free Protease Inhibitor Tablet (Roche) for each 10 mL of lysis buffer. After lysis plates are incubated for 20 minutes at room temperature. Two microliters of lysate are removed for use in Cell Titer Glo assay (Promega) and MTT cocktail is prepared (Prochaska et. al. 1998) for measurement of NQO1 activity. Fifty microliters of MTT cocktail is added to each well, plate is centrifuged, and analyzed on an Envision plate reader (Perkin Elmer) using Absorbance 570 nm label for 30 minutes. Product formation is measured kinetically and the EC50 of NQO1 specific activity induction is calculated by plotting the change in absorbance (Delta OD/min) versus the log of compound concentration followed by 3-parameter fitting.
EC50s<1 nM (+++++), EC50s 1 nM-10 nM (++++), EC50s 10 nM-100 nM (+++), EC50s 100 nM-1 uM (++), EC50s 1-10 uM (+), EC50s>10 uM (−), or were not determined (ND).

Compound	EC50
CC[C@@H]1CN(Cc2cc([C@H](CC(=O)Nc3ccncc3)c3ccc4c(nnn4CC)c3C)ccc2C)S(=O)(=O)c2cccnc2O1 [Example 19, (S)-3-(3-(((R)-4-Ethyl-1,1-dioxido-3,4-dihydro-2H-pyrido[2,3-b][1,4,5]oxathiazepin-2-yl)methyl)-4-methylphenyl)-3-(1-ethyl-4-methyl-1H-benzo[d][1,2,3]triazol-5-yl)-N-(pyridin-4-yl)propanamide]	100 to 1000 nM
CC[C@@H]1CN(Cc2cc([C@@H](c3ccc4c(nnn4CC)c3C)[C@@H](C)C(=O)N3C(=O)OC[C@H]3Cc3ccccc3)ccc2C)S(=O)(=O)c2cccnc2O1 [Example 20, (R)-4-Benzyl-3-((2R,3S)-3-(3-(((R)-4-ethyl-1,1-dioxido-3,4-dihydro-2H-pyrido[2,3-b][1,4,5]oxathiazepin-2-yl)methyl)-4-methylphenyl)-3-(1-ethyl-4-methyl-1H-benzo[d][1,2,3]triazol-5-yl)-2-methylpropanoyl)oxazolidin-2-one]	100 to 1000 nM
CC[C@@H]1CN(Cc2cc([C@H](CC(=O)NCCC(=O)N(C)C)c3ccc4c(nnn4CC)c3C)ccc2C)S(=O)(=O)c2cccnc2O1 [Example 21, (S)—N-(3-(Dimethylamino)-3-oxopropyl)-3-(3-(((R)-4-ethyl-1,1-dioxido-3,4-dihydro-2H-pyrido[2,3-b][1,4,5]oxathiazepin-2-yl)methyl)-4-methylphenyl)-3-(1-ethyl-4-methyl-1H-benzo[d][1,2,3]triazol-5-yl)propanamide]	1000 to 10000 nM
CC[C@@H]1CN(Cc2cc([C@H](CC(=O)NC3CCOC3)c3ccc4c(nnn4CC)c3C)ccc2C)S(=O)(=O)c2cccnc2O1 (stereo partly drawn) [Example 22, (3S)-3-(3-(((R)-4-Ethyl-1,1-dioxido-3,4-dihydro-2H-pyrido[2,3-b][1,4,5]oxathiazepin-2-yl)methyl)-4-methylphenyl)-3-(1-ethyl-4-methyl-1H-benzo[d][1,2,3]triazol-5-yl)-N-(tetrahydrofuran-3-yl)propanamide]	100 to 1000 nM
CC[C@@H]1CN(Cc2cc([C@H](CC(=O)NC(C)(C)C(N)=O)c3ccc4c(nnn4CC)c3C)ccc2C)S(=O)(=O)c2cccnc2O1 [Example 23, (S)-N-(1-Amino-2-methyl-1-oxopropan-2-yl)-3-(3-(((R)-4-ethyl-1,1-dioxido-3,4-dihydro-2H-pyrido[2,3-b][1,4,5]oxathiazepin-2-yl)methyl)-4-methylphenyl)-3-(1-ethyl-4-methyl-1H-benzo[d][1,2,3]triazol-5-yl)propanamide]	1000 to 10000 nM
CC[C@@H]1CN(Cc2cc([C@H](CC(=O)NC3CN(C)C3)c3ccc4c(nnn4CC)c3C)ccc2C)S(=O)(=O)c2cccnc2O1 [Example 24, (S)-3-(3-(((R)-4-Ethyl-1,1-dioxido-3,4-dihydro-2H-pyrido[2,3-b][1,4,5]oxathiazepin-2-yl)methyl)-4-methylphenyl)-3-(1-ethyl-4-methyl-1H-benzo[d][1,2,3]triazol-5-yl)-N-(1-methylazetidin-3-yl)propanamide]	1000 to 10000 nM
CC[C@@H]1CN(Cc2cc([C@H](CC(=O)NC3CCCOC3)c3ccc4c(nnn4CC)c3C)ccc2C)S(=O)(=O)c2cccnc2O1 (stereo partly drawn) [Example 25, (3S)-3-(3-(((R)-4-Ethyl-1,1-dioxido-3,4-dihydro-2H-pyrido[2,3-b][1,4,5]oxathiazepin-2-yl)methyl)-4-methylphenyl)-3-(1-ethyl-4-methyl-1H-benzo[d][1,2,3]triazol-5-yl)-N-(tetrahydro-2H-pyran-3-yl)propanamide]	100 to 1000 nM
CC[C@@H]1CN(Cc2cc([C@H](CC(=O)NCC3CCOC3)c3ccc4c(nnn4CC)c3C)ccc2C)S(=O)(=O)c2cccnc2O1 (stereo partly drawn) [Example 26, (3S)-3-(3-(((R)-4-Ethyl-1,1-dioxido-3,4-dihydro-2H-pyrido[2,3-b][1,4,5]oxathiazepin-2-yl)methyl)-4-methylphenyl)-3-(1-ethyl-4-methyl-1H-benzo[d][1,2,3]triazol-5-yl)-N-((tetrahydrofuran-3-yl)methyl)propanamide]	100 to 1000 nM
CC[C@@H]1CN(Cc2cc([C@H](CC(=O)NCC(C)(C)O)c3ccc4c(nnn4CC)c3C)ccc2C)S(=O)(=O)c2cccnc2O1 [Example 27, (S)-3-(3-(((R)-4-Ethyl-1,1-dioxido-3,4-dihydro-2H-pyrido[2,3-b][1,4,5]oxathiazepin-2-yl)methyl)-4-methylphenyl)-3-(1-ethyl-4-methyl-1H-benzo[d][1,2,3]triazol-5-yl)-N-(2-hydroxy-2-methylpropyl)propanamide]	1000 to 10000 nM
CC[C@@H]1CN(Cc2cc([C@H](CC(=O)NC(C)C(=O)NC)c3ccc4c(nnn4CC)c3C)ccc2C)S(=O)(=O)c2cccnc2O1 (stereo partly drawn) [Example 28, (3S)-3-(3-(((R)-4-Ethyl-1,1-dioxido-3,4-dihydro-2H-pyrido[2,3-b][1,4,5]oxathiazepin-2-yl)methyl)-4-methylphenyl)-3-(1-ethyl-4-methyl-1H-benzo[d][1,2,3]triazol-5-yl)-N-(1-(methylamino)-1-oxopropan-2-yl)propanamide]	1000 to 10000 nM
CC[C@@H]1CN(Cc2cc([C@H](CC(=O)NC3CCCNC3=O)c3ccc4c(nnn4CC)c3C)ccc2C)S(=O)(=O)c2cccnc2O1 (stereo partly drawn) [Example 29, (3S)-3-(3-(((R)-4-Ethyl-1,1-dioxido-3,4-dihydro-2H-pyrido[2,3-b][1,4,5]oxathiazepin-2-yl)methyl)-4-methylphenyl)-3-(1-ethyl-4-methyl-1H-benzo[d][1,2,3]triazol-5-yl)-N-(2-oxopiperidin-3-yl)propanamide]	1000 to 10000 nM
CC[C@@H]1CN(Cc2cc([C@H](CC(=O)NCCS(N)(=O)=O)c3ccc4c(nnn4CC)c3C)ccc2C)S(=O)(=O)c2cccnc2O1 [Example 30, (S)-3-(3-(((R)-4-Ethyl-1,1-dioxido-3,4-dihydro-2H-pyrido[2,3-b][1,4,5]oxathiazepin-2-yl)methyl)-4-methylphenyl)-3-(1-ethyl-4-methyl-1H-benzo[d][1,2,3]triazol-5-yl)-N-(2-sulfamoylethyl)propanamide]	100 to 1000 nM
CC[C@@H]1CN(Cc2cc([C@H](CC(=O)NC3CC3)c3ccc4c(nnn4CC)c3C)ccc2C)S(=O)(=O)c2cccnc2O1 [Example 31, (S)—N-Cyclopropyl-3-(3-(((R)-4-ethyl-1,1-dioxido-3,4-dihydro-2H-pyrido[2,3-b][1,4,5]oxathiazepin-2-yl)methyl)-4-methylphenyl)-3-(1-ethyl-4-methyl-1H-benzo[d][1,2,3]triazol-5-yl)propanamide]	100 to 1000 nM
CC[C@@H]1CN(Cc2cc([C@H](CC(=O)NCCO)c3ccc4c(nnn4CC)c3C)ccc2C)S(=O)(=O)c2cccnc2O1 [Example 32, (S)-3-(3-(((R)-4-Ethyl-1,1-dioxido-3,4-dihydro-2H-pyrido[2,3-b][1,4,5]oxathiazepin-2-yl)methyl)-4-methylphenyl)-3-(1-ethyl-4-methyl-1H-benzo[d][1,2,3]triazol-5-yl)-N-(2-hydroxyethyl)propanamide]	1000 to 10000 nM
CC[C@@H]1CN(Cc2cc([C@H](CC(=O)NCCCO)c3ccc4c(nnn4CC)c3C)ccc2C)S(=O)(=O)c2cccnc2O1 [Example 33, (S)-3-(3-(((R)-4-Ethyl-1,1-dioxido-3,4-dihydro-2H-pyrido[2,3-b][1,4,5]oxathiazepin-2-yl)methyl)-4-methylphenyl)-3-(1-ethyl-4-methyl-1H-benzo[d][1,2,3]triazol-5-yl)-N-(3-hydroxypropyl)-propanamide]	1000 to 10000 nM
